Read-outs that look alike come from different tables or passages of the source.
Key:
Format in all cases: in vivo
cotton [1] = details: for Number (Bolls): 52DAAA
Procedure: Evaluation of Postemergence Plant Growth Regulator Activity in the Greenhouse Treatments consisted of the compounds as listed in Table 1. Formulated amounts of penoxsulam (Dow AgroSciences Granite® SC herbicide) were placed in 3-liter bottles and dissolved in a volume of 500 mL of a water solution containing Agri-dex crop oil concentrate in a 1.25% v/v ratio. Compound requirements are based upon a 0.3 L application volume at a rate of 187 liters per hectare (L/ha). Spray solutions of the mixtures were prepared by adding the stock solutions to the appropriate amount of dilution solution to form a 500 mL spray solution with active ingredients in single and two way combinations. Formulated compounds were applied to the plant material via backpack sprayer with XR 11001 nozzles calibrated to deliver 187 L/ha at a spray height of 18 inches ([…] centimeters (cm)) above average plant canopy. The treated and control plants were placed in a greenhouse in a randomized block design on greenhouse carts and watered by […] irrigation to prevent wash-off of the test compounds from leafy tissues. Treatments were rated at 14 to 52 days after application as compared to the untreated control plants. Visual injury ratings were scored on a scale of 0 to 10 where 0 corresponds to no injury and 10 corresponds to complete control.

cotton [2] = experiment: Postemergence plant growth regulator activity in the field (cotton); details: for Reduction (height reduction, Cotton) / Maturity (% open bolls, Cotton) / Injury (Cotton): 10-leaf stage
Procedure: Evaluation of Postemergence Plant Growth Regulator Activity in the Field
(§1) One field trial was conducted in field-grown cotton using standard herbicide small plot research methodology (Table 2). Plots were 2 rows wide by 20 ft long with 4 replicates per treatment. The cotton crop was grown using normal cultural practices for fertilization, seeding, watering, flooding and maintenance to ensure good growth of the crop and the weeds.
(§2) All treatments in the field trials were applied using a CO2 backpack sprayer calibrated to apply 187 L/ha spray volume. Commercially available products of penoxsulam and mepiquat chloride were mixed in water at appropriate formulated product rates to achieve the desired rates based on a unit area of application (hectare) to achieve the desired rates as shown. Treatments were sprayed as a postemergence foliar application to cotton at 10-leaf stage application timing. Treatments were rated at 16 and 41 days after the application as compared to the untreated control plants. Visual crop injury ratings were scored on a scale of 0 to 100 where 0 corresponds to no injury and 100 corresponds to complete control. Visual weed control was scored on a scale of 0 to 100 percent where 0 corresponds to no weed control and 100 corresponds to complete control.

[3] = tested on: Amaranthus spp, (pigweed); experiment: Field trial visual weed control, AMASS; details: 16DAA
Procedure: as §1, §2

[4] = tested on: Solanum nigrum (black nightshade); experiment: Field trial visual weed control, SOLNI; details: 16DAA
Procedure: as §1, §2

COc1cnc(OC)n2nc(NS(=O)(=O)c3c(OCC(F)F)cccc3C(F)(F)F)nc12 [Penoxsulam, 2-(2,2-difluoroethoxy)-N-(5,8-dimethoxy[1.2.4]triazolo[1,5-c]pyrimidine-2-yl)-6-(trifluoromethyl)benzenesulfonamide]
Height (cotton [1]; 8.8 gr ai/ha, application A (4 leaf cotton), 14DAAA): 17.6 Cm
Height (cotton [1]; 8.8 gr ai/ha, application A (4 leaf cotton), 27DAAA): 25.5 Cm
Height (cotton [1]; 8.8 gr ai/ha, application A (4 leaf cotton), 49DAAA): 36.6 Cm
Number (Bolls) (cotton [1]; 8.8 gr ai/ha, application A (4 leaf cotton)): 3.2 Bolls
Height (cotton [1]; 8.8 gr ai/ha, application B (10 leaf cotton, 21 days after A timing), 14DAAA): 28.8 Cm
Height (cotton [1]; 8.8 gr ai/ha, application B (10 leaf cotton, 21 days after A timing), 27DAAA): 32.7 Cm
Height (cotton [1]; 8.8 gr ai/ha, application B (10 leaf cotton, 21 days after A timing), 49DAAA): 44 Cm
Number (Bolls) (cotton [1]; 8.8 gr ai/ha, application B (10 leaf cotton, 21 days after A timing)): 9 Bolls
Height (cotton [1]; 17.5 gr ai/ha, application A (4 leaf cotton), 14DAAA): 15.7 Cm
Height (cotton [1]; 17.5 gr ai/ha, application A (4 leaf cotton), 27DAAA): 21.8 Cm
Height (cotton [1]; 17.5 gr ai/ha, application A (4 leaf cotton), 49DAAA): 33.5 Cm
Number (Bolls) (cotton [1]; 17.5 gr ai/ha, application A (4 leaf cotton)): 2.2 Bolls
Height (cotton [1]; 17.5 gr ai/ha, application B (10 leaf cotton, 21 days after A timing), 14DAAA): 27.2 Cm
Height (cotton [1]; 17.5 gr ai/ha, application B (10 leaf cotton, 21 days after A timing), 27DAAA): 30.4 Cm
Height (cotton [1]; 17.5 gr ai/ha, application B (10 leaf cotton, 21 days after A timing), 49DAAA): 39.2 Cm
Number (Bolls) (cotton [1]; 17.5 gr ai/ha, application B (10 leaf cotton, 21 days after A timing)): 8.4 Bolls
Height (cotton [1]; 35 gr ai/ha, application A (4 leaf cotton), 14DAAA): 15.5 Cm
Height (cotton [1]; 35 gr ai/ha, application A (4 leaf cotton), 27DAAA): 20.5 Cm
Height (cotton [1]; 35 gr ai/ha, application A (4 leaf cotton), 49DAAA): 30.1 Cm
Number (Bolls) (cotton [1]; 35 gr ai/ha, application A (4 leaf cotton)): 2.8 Bolls
plant growth regulator effect on cotton (summary of Table 1) (cotton [1]; greenhouse): growth regulating activity of penoxsulam on cotton growth and increase in cotton boll production
Reduction (height reduction, Cotton) (cotton [2]; 35 gr ai/ha, 16DAA): 11.3 % Visual
Maturity (% open bolls, Cotton) (cotton [2]; 35 gr ai/ha, 41DAA): 62.5 % Visual
Reduction (height reduction, Cotton) (cotton [2]; 35 gr ai/ha, 41DAA): 10 % Visual
Reduction (height reduction, Cotton) (cotton [2]; 70 gr ai/ha, 16DAA): 9.3 % Visual
Maturity (% open bolls, Cotton) (cotton [2]; 70 gr ai/ha, 41DAA): 48.8 % Visual
Reduction (height reduction, Cotton) (cotton [2]; 70 gr ai/ha, 41DAA): 5 % Visual
plant growth regulator effect on cotton (summary of Table 2) (cotton [2]; field): growth inhibiting activity of penoxsulam, similar to the commercial product mepiquat-chloride, while increasing the maturity of cotton bolls
Control (AMASS) ([3]; 35 gr ai/ha): 95 % Visual
Control (AMASS) ([3]; 70 gr ai/ha): 98.8 % Visual
Control (SOLNI) ([4]; 35 gr ai/ha): 88.8 % Visual
Control (SOLNI) ([4]; 70 gr ai/ha): 93.8 % Visual

C[N+]1(C)CCCCC1 [Mepiquat-chloride]
Injury (Cotton) (cotton [2]; 74 gr ai/ha, 16DAA): 0 % Visual
Reduction (height reduction, Cotton) (cotton [2]; 74 gr ai/ha, 16DAA): 11.3 % Visual
Injury (Cotton) (cotton [2]; 74 gr ai/ha, 41DAA): 5 % Visual
Maturity (% open bolls, Cotton) (cotton [2]; 74 gr ai/ha, 41DAA): 53.8 % Visual
Reduction (height reduction, Cotton) (cotton [2]; 74 gr ai/ha, 41DAA): 13.8 % Visual
Control (AMASS) ([3]; 74 gr ai/ha): 95 % Visual
Control (SOLNI) ([4]; 74 gr ai/ha): 91.3 % Visual
